Experimental data taken from patent publication US10662183B2, “Inhibitors of myocardin-related transcription factor and serum response factor (MRTF/SRF)-mediated gene transcription and methods for use of the same” (THE REGENTS OF THE UNIVERSITY OF MICHIGAN, priority 2014, dated 2020).

Tested on: SRE.L-firefly luciferase reporter (Rho/MKL1 pathway) in PC-3 prostate cancer cells
Assay: SRE.L-luciferase reporter assay
Type: cell-based
Details: PC-3 cells transfected with Gα12Q231L, SRE.L and pRL-TK reporters, compound 19 hrs
Method: Seed PC-3 prostate cancer cells (40,000 cells/well) were grown in 96-well plates in 10% FBS containing DMEM medium. Cells were transiently transfected with the Ga12QL activator of the Rho/MKL1 pathway, along with the SRE.L-firefly luciferase reporter construct for 6 hours. Additionally, cells were co-transfected with the TK-Renilla luciferase reporter as an indicator of non-specific compound effects. Various concentrations of the compounds disclosed herein were added to the 96-well plates. Plates were incubated for 19 hours at 37° C. and 5% C02 in 0.5% FBS containing DMEM medium. Cells were lysed with IX Passive Lysis Buffer (Promega). Plates were incubated for 30 minutes at room temperature. Luminescence counts were read with a Victor2 (Perkin-Elmer) plate reader.
One hour prior to cell lysis for the dual luciferase assay, 10 μl: per well of WST1 reagent (Roche) was added to the 96-well plates. Plates were incubated for 1 hour at 37° C. and 5% CO2. Cell viability was measured by WST1 absorbance at 450 nm with a Victor2 (Perkin-Elmer) plate reader.
Biological activity of the compounds disclosed herein were assessed in the SRE.L luciferase reporter assay. PC-3 prostate cancer cells were co-transfected with 2 ng of the Gα12Q231L expression plasmid along with 50 ng of the SRE.L and 7 ng of the pRL-TK luciferase reporter plasmids, as described in the Materials and Methods section. Cells were treated with 0 (vehicle, DMSO alone), 1, 3, 10, 30, and 100 μM of a compound disclosed herein for 19 hrs after transfection before lysis. Luminescence was determined as described in the Materials and Methods section. Just before cell lysis, the viability of the cells was measured using the WST-1 cell proliferation reagent as described in the Materials and Methods section. Data are expressed as percentage of inhibition (DMSO alone=0%). The experiments were performed three separate times to achieve n=3 in triplicate.

| Structure (SMILES) | IC50 [µM] | IC50 (19 h) [µM] |
| --- | --- | --- |
| COC1CC(C(=O)Nc2ccc(Cl)cc2)CN(C(=O)c2cccc(-c3ccco3)c2)C1 (single isomer, unassigned) [Example E-045, N-(4-chlorophenyl)-1-(3-(furan-2-yl)benzoyl)-5-methoxypiperidine-3-carboxamide] | 0.93 |  |
| COC1CC(C(=O)Nc2ccc(Cl)cc2)CN(C(=O)c2cccc(-c3ccco3)c2)C1 (single isomer, unassigned) [Example E-046, N-(4-chlorophenyl)-1-(3-(furan-2-yl)benzoyl)-5-methoxypiperidine-3-carboxamide] | 2.3 |  |
| O=C(NC1CC(C(=O)Nc2ccc(Cl)cc2)CN(C(=O)c2cccc(-c3ccco3)c2)C1)c1ccccc1 (single isomer, unassigned) [Example E-054, 5-benzamido-N-(4-chlorophenyl)-1-(3-(furan-2-yl)benzoyl) piperidine-3-carboxamide] | 30 |  |
| O=C(NC1CC(C(=O)Nc2ccc(Cl)cc2)CN(C(=O)c2cccc(-c3ccco3)c2)C1)c1ccccc1 (single isomer, unassigned) [Example E-055, 5-benzamido-N-(4-chlorophenyl)-1-(3-(furan-2-yl)benzoyl) piperidine-3-carboxamide] | 2.2 |  |
| CN(Cc1ccccc1)C1CC(C(=O)Nc2ccc(Cl)cc2)CN(C(=O)c2cccc(-c3ccco3)c2)C1 (single isomer, unassigned) [Example E-060, 5-(benzyl(methyl)amino)-N-(4-chlorophenyl)-1-(3-(furan-2-yl)benzoyl)piperidine-3-carboxamide] | 18 |  |
| CN(Cc1ccccc1)C1CC(C(=O)Nc2ccc(Cl)cc2)CN(C(=O)c2cccc(-c3ccco3)c2)C1 (single isomer, unassigned) [Example E-061, 5-(benzyl(methyl)amino)-N-(4-chlorophenyl)-1-(3-(furan-2-yl)benzoyl)piperidine-3-carboxamide] | 1.9 |  |
| CC(c1ccc(-n2cccn2)cc1)N1CCCC(C(=O)Nc2ccc(Cl)cc2)C1 (single isomer, unassigned) [Example E-102, 1-(1-(4-(1H-pyrazol-1-yl)phenyl)ethyl)-N-(4-chlorophenyl)piperidine-3-carboxamide] |  | 1.4 |
| CC(c1ccc(-n2cccn2)cc1)N1CCCC(C(=O)Nc2ccc(Cl)cc2)C1 (single isomer, unassigned) [Example E-103, 1-(1-(4-(1H-pyrazol-1-yl)phenyl)ethyl)-N-(4-chlorophenyl)piperidine-3-carboxamide] | 2.2 |  |
| O=C(c1cccc(-c2ccco2)c1)N1CCCC(F)(C(=O)Nc2ccc(Cl)cc2)C1 (centres unmarked) [Example E-001, N-(4-chlorophenyl)-3-fluoro-1-(3-(furan-2-yl)benzoyl)piperidine-3-carboxamide] |  | 7.3 |
| O=C(Nc1ccc(Cl)cc1)C1CCCN(C(=O)c2cccc(-c3ccco3)c2)C1 (centres unmarked) [Example E-002, N-(4-chlorophenyl)-1-(3-(furan-2-yl)benzoyl)piperidine-3-carboxamide] |  | 7.1 |
| O=C(Nc1ccc(Cl)cc1)C1CCCN(C(=O)c2cccc(-c3ccc(Cl)o3)c2)C1 (centres unmarked) [Example E-003, 1-(3-(5-chlorofuran-2-yl)benzoyl)-N-(4-chlorophenyl)piperidine-3-carboxamide] |  | 12 |
| O=C(Nc1ccc(Cl)cc1)C1CN(C(=O)c2cccc(-c3ccco3)c2)CCN1C(=O)OCc1ccccc1 (centres unmarked) [Example E-004, benzyl 2-((4-chlorophenyl)carbamoyl)-4-(3-(furan-2-yl)benzoyl)piperazine-1-carboxylate] |  | 1.8 |
| CCC(=O)N1CCN(C(=O)c2cccc(-c3ccco3)c2)CC1C(=O)Nc1ccc(Cl)cc1 (centres unmarked) [Example E-005, N-(4-chlorophenyl)-4-(3-(furan-2-yl)benzoyl)-1-propionylpiperazine-2-carboxamide] |  | 19 |
| CC(C)C(=O)N1CCN(C(=O)c2cccc(-c3ccco3)c2)CC1C(=O)Nc1ccc(Cl)cc1 (centres unmarked) [Example E-006, N-(4-chlorophen)-4-(3-(furan-2-yl)benzoyl)-1-isobutyrylpiperazine-2-carboxamide] |  | 12 |
| COc1ccc(C(=O)N2CCN(C(=O)c3cccc(-c4ccco4)c3)CC2C(=O)Nc2ccc(Cl)cc2)cc1 (centres unmarked) [Example E-007, N-(4-chlorophenyl)-4-(3-(furan-2-yl)benzoyl)-1-(4-methoxybenzoyl)piperazine-2-carboxamide] |  | 15 |
| CC(=O)N1CCN(C(=O)c2cccc(-c3ccco3)c2)CC1C(=O)Nc1ccc(Cl)cc1 (centres unmarked) [Example E-008, 1-acetyl-N-(4-chlorophenyl)-4-(3-(furan-2-yl)benzoyl)piperazine-2-carboxamide] |  | 50 |
| O=C(Nc1ccc(Cl)cc1)C1CN(C(=O)c2cccc(-c3ccco3)c2)CCN1C(=O)Nc1ccccc1 (centres unmarked) [Example E-009, N2-(4-chlorophenyl)-4-(3-(furan-2-yl)benzoyl)-N1-phenylpiperazine-1,2-dicarboxamide] |  | 18 |
| CC(C)NC(=O)N1CCN(C(=O)c2cccc(-c3ccco3)c2)CC1C(=O)Nc1ccc(Cl)cc1 (centres unmarked) [Example E-010, N2-(4-chlorophenyl)-4-(3-(furan-2-yl)benzoyl)-N1-isopropylpiperazine-1,2-dicarboxamide] |  | 24 |
| O=C(Nc1ccc(Cl)cc1)C1CN(C(=O)c2cccc(-c3ccco3)c2)CCN1C(=O)NC1CCCC1 (centres unmarked) [Example E-011, N2-(4-chlorophenyl)-N1-cyclopentyl-4-(3-(furan-2-yl)benzoyl)piperazine-1,2-dicarboxamide] |  | 14 |
| C=CCNC(=O)N1CCN(C(=O)c2cccc(-c3ccco3)c2)CC1C(=O)Nc1ccc(Cl)cc1 (centres unmarked) [Example E-012, N1-allyl-N2-(4-chlorophenyl)-4-(3-(furan-2-yl)benzoyl)piperazine-1,2-dicarboxamide] |  | 25 |
| CCCOC(=O)N1CCN(C(=O)c2cccc(-c3ccco3)c2)CC1C(=O)Nc1ccc(Cl)cc1 (centres unmarked) [Example E-013, propyl 2((4-chlorophenyl)carbamoyl)-4-(3-(furan-2-yl)benzoyl)piperazine-1-carboxylate] |  | 18 |
| CCOC(=O)N1CCN(C(=O)c2cccc(-c3ccco3)c2)CC1C(=O)Nc1ccc(Cl)cc1 (centres unmarked) [Example E-014, ethyl 2((4-chlorophenyl)carbamoyl)-4-(3-(furan-2-yl)benzoyl)piperazine-1-carboxylate] |  | 16 |
| O=C(Nc1ccc(Cl)cc1)C1CN(C(=O)c2cccc(-c3ccco3)c2)CCN1C(=O)Oc1ccccc1 (centres unmarked) [Example E-015, phenyl 2((4-chlorophenyl)carbamoyl)-4-(3-(furan-2-yl)benzoyl)piperazine-1-carboxylate] |  | 26 |
| COCCOC(=O)N1CCN(C(=O)c2cccc(-c3ccco3)c2)CC1C(=O)Nc1ccc(Cl)cc1 (centres unmarked) [Example E-016, 2-methoxyethyl 2((4-chlorophenyl)carbamoyl)-4-(3-(furan-2-yl)benzoyl)piperazine-1-carboxylate] |  | 16 |
| O=C(Nc1ccc(Cl)cc1)C1CN(C(=O)c2cccc(-c3ccco3)c2)CCN1Cc1ccccc1 (centres unmarked) [Example E-017, 1-benzyl-N-(4-chlorophenyl)-4-(3-(furan-2-yl)benzoyl)piperazine-2-carboxamide] |  | 16 |
| CN1CCN(C(=O)c2cccc(-c3ccco3)c2)CC1C(=O)Nc1ccc(Cl)cc1 (centres unmarked) [Example E-018, N-(4-chlorophenyl)-4-(3-(furan-2-yl)benzoyl)-1-methylpiperazine-2-carboxamide] |  | 8.7 |
